Our source for the IC50 values is patent US20080261994A1, “CYCLOPROPANE COMPOUNDS AND PHARMACEUTICAL USE THEREOF” (Japan Tobacco Inc., priority 2003, published 2008).

What all share (format): biochemical
In one test the target is T1, aggrecanase-1 (Homo sapiens, UniProt O75173).
T1 sequence (O75173 213-837): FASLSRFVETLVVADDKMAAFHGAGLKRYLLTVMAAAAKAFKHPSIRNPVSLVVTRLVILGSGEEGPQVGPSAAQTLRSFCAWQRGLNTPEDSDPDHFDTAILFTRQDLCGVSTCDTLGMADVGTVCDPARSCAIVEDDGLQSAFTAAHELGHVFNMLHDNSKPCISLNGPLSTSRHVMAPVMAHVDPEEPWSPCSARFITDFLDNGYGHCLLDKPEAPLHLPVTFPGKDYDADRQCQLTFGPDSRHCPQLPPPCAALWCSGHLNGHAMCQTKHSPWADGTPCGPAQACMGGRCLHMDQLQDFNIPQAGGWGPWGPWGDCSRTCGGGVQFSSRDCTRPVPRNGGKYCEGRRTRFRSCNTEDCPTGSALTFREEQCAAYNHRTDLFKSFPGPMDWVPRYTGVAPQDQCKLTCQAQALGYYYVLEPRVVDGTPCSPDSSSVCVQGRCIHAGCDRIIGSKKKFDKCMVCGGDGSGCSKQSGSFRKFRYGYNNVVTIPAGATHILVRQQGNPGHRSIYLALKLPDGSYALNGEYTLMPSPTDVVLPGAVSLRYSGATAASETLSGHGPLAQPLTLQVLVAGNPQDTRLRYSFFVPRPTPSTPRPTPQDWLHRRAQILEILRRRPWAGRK
Nature of the test: Aggrecanase-1 inhibitory action (Particle Assay, GAG release from aggrecan-containing polyacrylamide particles). Conditions: aggrecanase-1 inhibitory action; read-out: IC50 AG1 (Experimental Example 1). The method in brief:
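Readout was dimethylmethylene blue absorbance (595 nm) of glycosaminoglycan liberated into supernatant, calibrated with whale chondroitin sulfate. Substrate was aggrecan in polyacrylamide particles, digested 15 h at 37° C in Tris-HCl; TC50 (μM) derived from inhibition relative to no-enzyme and no-inhibitor controls.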

In the next test the target is T2, MMP-1 (Homo sapiens, UniProt P03956).
T2 sequence (P03956 100-469): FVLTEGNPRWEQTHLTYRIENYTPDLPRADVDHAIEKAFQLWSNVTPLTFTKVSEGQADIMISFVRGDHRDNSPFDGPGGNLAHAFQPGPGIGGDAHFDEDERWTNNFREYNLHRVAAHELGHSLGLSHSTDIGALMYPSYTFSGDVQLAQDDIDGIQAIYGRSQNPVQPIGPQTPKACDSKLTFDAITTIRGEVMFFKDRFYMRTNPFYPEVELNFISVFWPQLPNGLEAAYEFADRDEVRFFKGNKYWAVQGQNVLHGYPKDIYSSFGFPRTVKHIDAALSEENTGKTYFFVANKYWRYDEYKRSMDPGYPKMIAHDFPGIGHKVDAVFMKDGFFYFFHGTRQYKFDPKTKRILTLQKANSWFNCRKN
In words: MMP-1 inhibitory action (Type I collagen Activity Measurement kit, FITC-labeled collagen type I). Conditions: MMP-1 inhibitory action, FITC-labeled collagen type I, 37° C. for 3 hr; read-out: IC50 MMP1 (Experimental Example 2).

The target of a further test is T3, Recombinant Human MMP-13 (Homo sapiens, UniProt P45452).
T3 construct: purchased R&D systems 511-MM
Nature of the test: MMP-13 inhibitory activity (MMP-13 specific fluorescent substrate with quencher). Conditions: Recombinant Human MMP-13, fluorescent substrate, 25° C. for 1 h; read-out: IC50 MMP13 (Experimental Example 3). An outline of the steps: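 IC50 (μM) derived from % inhibition, normalised to wells without enzyme and without inhibitor, fluorescence read at 325/405 nm. Enzyme and compound preceded addition of the quenched 7-MCA…DPA substrate; Tris-HCl buffer, 25 °C for 1 h, acetic-acid stop.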

SMILES strings stand for the structures.

The term IC50 denotes the point on the concentration scale where inhibition reaches its midpoint. For `COCCN(C)C(=O)c1ccccc1C1CC1(NS(=O)(=O)c1ccc(-c2ccc(Cl)cc2)s1)C(=O)O` (stereo not drawn) [Example 2-71], the IC50 on aggrecanase-1 is < 0.1 µM; on MMP-1 it was ≥ 10 µM; at Recombinant Human MMP-13, < 1 µM.
Take `O=C(NCCO)c1ccccc1C1CC1(NS(=O)(=O)c1ccc(-c2ccc(Cl)cc2)s1)C(=O)O` (stereo not drawn) [Example 2-72]: the results for the IC50 at aggrecanase-1, at MMP-1 and on Recombinant Human MMP-13 were < 0.1 µM, ≥ 10 µM and < 1 µM, respectively.
The matching figures for `O=C(c1cccc(C2CC2(NS(=O)(=O)c2ccc(-c3ccc(Cl)cc3)s2)C(=O)O)c1)N1CCOCC1` (stereo not drawn) [Example 2-73]: < 0.1 µM, ≥ 10 µM and < 1 µM.
The matching figures for `CC(C)(CO)NC(=O)c1cccc(C2CC2(NS(=O)(=O)c2ccc(-c3ccc(Cl)cc3)s2)C(=O)O)c1` (stereo not drawn) [Example 2-74]: < 1 µM, ≥ 10 µM and < 0.1 µM.
Take `O=C(NCCO)c1cccc(C2CC2(NS(=O)(=O)c2ccc(-c3ccc(Cl)cc3)s2)C(=O)O)c1` (stereo not drawn) [Example 2-75]: the half-maximal inhibitory concentration (IC50) was < 1 µM at aggrecanase-1, ≥ 10 µM at MMP-1 and < 1 µM at Recombinant Human MMP-13.
As for `O=C(c1ccccc1C1CC1(NS(=O)(=O)c1ccc(-c2ccc(Cl)cc2)s1)C(=O)O)N1CCOCC1` (stereo not drawn) [Example 2-76], the IC50 was < 0.1 µM at aggrecanase-1, ≥ 10 µM on MMP-1 and < 1 µM on Recombinant Human MMP-13.
`CC1(C)COC(c2ccccc2C2CC2(NS(=O)(=O)c2ccc(-c3ccc(Cl)cc3)s2)C(=O)O)=N1` (stereo not drawn) [Example 2-77]: the IC50 on aggrecanase-1 was < 0.1 µM; on MMP-1 it was ≥ 1 µM; at Recombinant Human MMP-13, < 1 µM.
As for `CC(C)(CO)NC(=O)c1ccccc1C1CC1(NS(=O)(=O)c1ccc(-c2ccc(Cl)cc2)s1)C(=O)O` (stereo not drawn) [Example 2-78], the results for the IC50 on aggrecanase-1, on MMP-1 and at Recombinant Human MMP-13 were < 0.1 µM, ≥ 10 µM and < 1 µM, respectively.
For the compound `Cc1ncc(-c2ccc(S(=O)(=O)NC3(C(=O)O)CC3c3ccccc3)s2)o1` (stereo not drawn) [Example 2-79], the IC50 on aggrecanase-1, at MMP-1 and on Recombinant Human MMP-13 was ≥ 10 µM throughout.
With `CC(=O)c1ccc(S(=O)(=O)NC2(C(=O)O)CC2c2ccccc2)cc1` (stereo not drawn) [Example 2-80], the IC50 at aggrecanase-1, at MMP-1 and on Recombinant Human MMP-13 was ≥ 10 µM in each case.
Take `O=C(O)C1(NS(=O)(=O)c2ccc(S(=O)(=O)c3ccccc3)s2)CC1c1ccccc1` (stereo not drawn) [Example 2-81]: the IC50 on aggrecanase-1, at MMP-1 and on Recombinant Human MMP-13 was ≥ 10 µM each time.
In the case of `O=C(O)C1(NS(=O)(=O)c2ccc(Cl)s2)CC1c1ccccc1` (stereo not drawn) [Example 2-82], the IC50 on aggrecanase-1, at MMP-1 and at Recombinant Human MMP-13 was ≥ 10 µM throughout.
Regarding `O=C(O)C1(NS(=O)(=O)c2cccs2)CC1c1ccccc1` (stereo not drawn) [Example 2-83], the half-inhibitory concentration (IC50) at aggrecanase-1, at MMP-1 and on Recombinant Human MMP-13 was ≥ 10 µM in each case.
As to `CC(F)(F)c1cc(-c2ccc(S(=O)(=O)N[C@@]3(C(=O)O)C[C@@H]3c3ccccc3)s2)no1` [Example 2-84], the IC50 at aggrecanase-1 is < 0.1 µM; on MMP-1, < 1 µM; on Recombinant Human MMP-13, < 0.1 µM.
Consider `Cc1cc(-c2ccc(S(=O)(=O)N[C@@]3(C(=O)O)C[C@@H]3c3ccccc3)s2)no1` [Example 2-85], for which the IC50 at aggrecanase-1 was < 1 µM; at MMP-1 it was ≥ 1 µM; on Recombinant Human MMP-13, < 0.1 µM.
Regarding `Cc1csc(-c2cccc(C3CC3(NS(=O)(=O)c3ccc(-c4ccc(Cl)cc4)s3)C(=O)O)c2)n1` (stereo not drawn) [Example 2-86], the figures for the IC50 at aggrecanase-1, at MMP-1 and on Recombinant Human MMP-13 were < 0.1 µM, ≥ 10 µM and < 1 µM, respectively.
Taken in the same sequence, the figures for `Cc1nc(-c2ccc(S(=O)(=O)NC3(C(=O)O)CC3c3ccccc3)s2)co1` (stereo not drawn) [Example 2-87] were ≥ 10 µM, ≥ 10 µM and ≥ 1 µM.
With `Cc1nc(-c2ccc(S(=O)(=O)NC3(C(=O)O)CC3c3ccccc3)s2)c(Cl)o1` (stereo not drawn) [Example 2-88], the IC50 at aggrecanase-1, at MMP-1 and on Recombinant Human MMP-13 was ≥ 10 µM each time.
For `COCCN(C)Cc1ccccc1C1CC1(NS(=O)(=O)c1ccc(-c2ccc(Cl)cc2)s1)C(=O)O` (stereo not drawn) [Example 2-89], the values for the IC50 at aggrecanase-1, at MMP-1 and on Recombinant Human MMP-13 were ≥ 1 µM, ≥ 10 µM and ≥ 1 µM, respectively.
On to `CCCc1cc(-c2ccc(S(=O)(=O)N[C@@]3(C(=O)O)C[C@@H]3c3ccccc3)s2)no1` [Example 2-90], for which the IC50 at aggrecanase-1 was ≥ 1 µM; on MMP-1, ≥ 1 µM; at Recombinant Human MMP-13 it was < 0.1 µM.
On to `O=C(O)C1(NS(=O)(=O)c2ccc(-c3ccc(Cl)cc3)s2)CC1c1ccccc1CN1CCOCC1` (stereo not drawn) [Example 2-91], for which the IC50 is < 1 µM on aggrecanase-1, ≥ 10 µM at MMP-1 and < 1 µM on Recombinant Human MMP-13.
Consider `CCc1cc(-c2ccc(S(=O)(=O)N[C@@]3(C(=O)O)C[C@@H]3c3ccccc3)s2)no1` [Example 2-92], for which the IC50 on aggrecanase-1 is < 0.1 µM; at MMP-1, < 1 µM; at Recombinant Human MMP-13 it was < 0.1 µM.
Turning to `CCCNC(=O)c1ccc(S(=O)(=O)NC2(C(=O)O)CC2c2ccccc2)s1` (stereo not drawn) [Example 2-93], the IC50 was ≥ 10 µM at aggrecanase-1, ≥ 10 µM at MMP-1 and ≥ 1 µM at Recombinant Human MMP-13.
For the compound `CC(C)NC(=O)c1ccc(S(=O)(=O)NC2(C(=O)O)CC2c2ccccc2)s1` (stereo not drawn) [Example 2-94], the IC50 at aggrecanase-1, on MMP-1 and on Recombinant Human MMP-13 was ≥ 10 µM each time.
Turning to `O=C(NC1CCCC1)c1ccc(S(=O)(=O)NC2(C(=O)O)CC2c2ccccc2)s1` (stereo not drawn) [Example 2-95], the IC50 at aggrecanase-1, on MMP-1 and on Recombinant Human MMP-13 was ≥ 10 µM in each case.
In the case of `O=C(Nc1ccccc1)c1ccc(S(=O)(=O)NC2(C(=O)O)CC2c2ccccc2)s1` (stereo not drawn) [Example 2-96], the IC50 at aggrecanase-1 is ≥ 10 µM; on MMP-1, ≥ 10 µM; at Recombinant Human MMP-13, < 1 µM.
As for `O=C(NCCC(F)(F)F)c1ccc(S(=O)(=O)NC2(C(=O)O)CC2c2ccccc2)s1` (stereo not drawn) [Example 2-97], the IC50 on aggrecanase-1, at MMP-1 and on Recombinant Human MMP-13 was ≥ 10 µM in each case.
In the case of `O=C(O)[C@]1(NS(=O)(=O)c2ccc(-c3cc(CF)on3)s2)C[C@@H]1c1ccccc1` [Example 2-98], the results for the IC50 at aggrecanase-1, at MMP-1 and at Recombinant Human MMP-13 were < 0.1 µM, ≥ 1 µM and < 0.1 µM, respectively.
With `O=C(O)[C@]1(NS(=O)(=O)c2ccc(-c3cc(C(F)F)on3)s2)C[C@@H]1c1ccccc1` [Example 2-99], the IC50 at aggrecanase-1 is < 0.1 µM; at MMP-1 it was < 1 µM; at Recombinant Human MMP-13 it was < 1 µM.
`C[C@]1(c2ccccc2)C[C@@]1(NS(=O)(=O)c1ccc2c(c1)Cc1cc(Br)ccc1-2)C(=O)O` [Example 2-100]: the IC50 is < 0.1 µM on aggrecanase-1, < 1 µM on MMP-1 and < 0.1 µM on Recombinant Human MMP-13.
Regarding `C[C@]1(c2ccccc2)C[C@@]1(NS(=O)(=O)c1ccc(-c2ccc(Cl)cc2)s1)C(=O)O` [Example 2-101], the IC50 at aggrecanase-1 is < 0.1 µM; at MMP-1, ≥ 1 µM; on Recombinant Human MMP-13 it was < 1 µM.
On to `O=C(O)c1ccc(S(=O)(=O)NC2(C(=O)O)CC2c2ccccc2)s1` (stereo not drawn) [Example 2-103], for which the IC50 on aggrecanase-1, on MMP-1 and at Recombinant Human MMP-13 was ≥ 10 µM each time.
Turning to `CCNC(=O)c1ccc(S(=O)(=O)NC2(C(=O)O)CC2c2ccccc2)s1` (stereo not drawn) [Example 2-104], the IC50 on aggrecanase-1, on MMP-1 and on Recombinant Human MMP-13 was ≥ 10 µM each time.
With `O=C(NC1CC1)c1ccc(S(=O)(=O)NC2(C(=O)O)CC2c2ccccc2)s1` (stereo not drawn) [Example 2-105], the IC50 at aggrecanase-1, at MMP-1 and at Recombinant Human MMP-13 was ≥ 10 µM each time.
`O=C(NCC(F)(F)F)c1ccc(S(=O)(=O)NC2(C(=O)O)CC2c2ccccc2)s1` (stereo not drawn) [Example 2-106]: the IC50 on aggrecanase-1, on MMP-1 and at Recombinant Human MMP-13 was ≥ 10 µM throughout.
